Earlier results, collected in patent publication US8324185B2, “Composition for the treatment of obesity and hyperlipidemia” (Nucitec, S.A. DF C.V., priority 2004, dated 2012).

Columns and labels:
pancreatic lipase = molecular target: T1, pancreatic lipase (Homo sapiens, UniProt P16233); conditions: in vitro
T1 sequence (P16233 17-465): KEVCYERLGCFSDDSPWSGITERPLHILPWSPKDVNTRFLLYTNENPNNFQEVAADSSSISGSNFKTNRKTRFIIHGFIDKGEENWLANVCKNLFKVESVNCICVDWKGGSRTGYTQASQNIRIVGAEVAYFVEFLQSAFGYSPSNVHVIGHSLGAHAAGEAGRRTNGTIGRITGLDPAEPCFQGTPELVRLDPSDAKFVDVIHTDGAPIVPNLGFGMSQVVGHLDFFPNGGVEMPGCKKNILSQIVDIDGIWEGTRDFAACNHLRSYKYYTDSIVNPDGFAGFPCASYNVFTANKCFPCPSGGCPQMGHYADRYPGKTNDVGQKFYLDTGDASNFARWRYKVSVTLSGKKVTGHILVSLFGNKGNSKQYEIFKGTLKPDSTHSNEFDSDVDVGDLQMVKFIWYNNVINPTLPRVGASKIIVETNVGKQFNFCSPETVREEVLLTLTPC

[1] = dietary fat

pK value of the amino group	SMILES	inhibition of pancreatic lipase activity (pancreatic lipase)	reduction in fat absorption from the diet [1]
~9	NCCCC[C@H](N)C(=O)O [lisine]	–	–
–	CCCCCCCCCCC[C@@H](C[C@@H]1OC(=O)[C@H]1CCCCCC)OC(=O)[C@H](CC(C)C)NC=O [orlistat]	fully inhibits	30%
